Where “and” joins values, the source holds several entries; their conditions need not be identical. Equal values may be shown once. Values belong to the compound of their own block, whether it stands above or below them.
System: 327498-153-R-J2-PDC complex spheroid growth, % test/control
Assay: Anticancer human tumor 327498-153-R-J2-PDC patient-derived uterine carcinosarcoma cell line growth inhibition [Asc]
Conditions: for viability, T/C: stronger effect = lower value
Procedure, shortened: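 Concentration series start at each agent's clinical Cmax, or at 10 microM when none is established, and drop in half-log steps; agents are applied alone or together to complex spheroids built with HUVEC and hMSC.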

[1] = curve of first compound, second compound 0.1 µM
[2] = curve of first compound, second compound 0.316 µM
[3] = curve of first compound, second compound 1 µM
[4] = second compound 0.1 µM, first compound 0.0316 µM
[5] = second compound 0.1 µM, first compound 0.1 µM
[6] = second compound 0.1 µM, first compound 0.316 µM
[7] = second compound 0.1 µM, first compound 1 µM
[8] = second compound 0.316 µM, first compound 0.0316 µM
[9] = second compound 0.316 µM, first compound 0.1 µM
[10] = second compound 0.316 µM, first compound 0.316 µM
[11] = second compound 0.316 µM, first compound 1 µM
[12] = second compound 1 µM, first compound 0.0316 µM
[13] = second compound 1 µM, first compound 0.1 µM
[14] = second compound 1 µM, first compound 0.316 µM
[15] = second compound 1 µM, first compound 1 µM
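Further: spheroids exposed to compound for 7 days after 3 days of growth.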
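Wherever viability, T/C is given: 100% = DMSO vehicle control wells.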

- IC50 (curve of first compound, second compound 0.01 µM): 1310 nM
- IC50 (curve of first compound, second compound 0.0316 µM): 1180 nM
- IC50 [1]: 1350 nM
- IC50 [2]: 1200 nM
- IC50 [3]: 985 nM
Structure (SMILES): C=C(F)C(=O)N1CCN(c2nc(OCC3CCCN3C)nc3c2CCN(c2cccc4cccc(Cl)c24)C3)CC1CC#N (centres undefined) + CNC(C)C(=O)NC1CN(S(=O)(=O)c2cccc(S(=O)(=O)N3CCC4CCC(C(=O)NC(c5ccccc5)c5ccccc5)N4C(=O)C(NC(=O)C(C)NC)C3)c2)CCC2CCC(C(=O)NC(c3ccccc3)c3ccccc3)N2C1=O
- viability, T/C (second compound 0.01 µM, first compound 0.0316 µM): 74.3%
- viability, T/C (second compound 0.01 µM, first compound 0.1 µM): 71%
- viability, T/C (second compound 0.01 µM, first compound 0.316 µM): 58.4%
- viability, T/C (second compound 0.01 µM, first compound 1 µM): 61.6%
- viability, T/C (second compound 0.01 µM, first compound 3.16 µM): 14.5%
- viability, T/C (second compound 0.01 µM, first compound 10 µM): 0.14%
- viability, T/C (second compound 0.0316 µM, first compound 0.0316 µM): 73.2%
- viability, T/C (second compound 0.0316 µM, first compound 0.1 µM): 71.6%
- viability, T/C (second compound 0.0316 µM, first compound 0.316 µM): 64.5%
- viability, T/C (second compound 0.0316 µM, first compound 1 µM): 56.8%
- viability, T/C (second compound 0.0316 µM, first compound 3.16 µM): 16.2%
- viability, T/C (second compound 0.0316 µM, first compound 10 µM): 0.14%
- viability, T/C [4]: 76%
- viability, T/C [5]: 67.6%
- viability, T/C [6]: 74.3%
- viability, T/C [7]: 62.6%
- viability, T/C (second compound 0.1 µM, first compound 3.16 µM): 14.1%
- viability, T/C (second compound 0.1 µM, first compound 10 µM): 0.13%
- viability, T/C [8]: 75.3%
- viability, T/C [9]: 74.7%
- viability, T/C [10]: 66%
- viability, T/C [11]: 58.1%
- viability, T/C (second compound 0.316 µM, first compound 3.16 µM): 11.2%
- viability, T/C (second compound 0.316 µM, first compound 10 µM): 0.14%
- viability, T/C [12]: 86%
- viability, T/C [13]: 78.8%
- viability, T/C [14]: 66.3%
- viability, T/C [15]: 55.5%
- viability, T/C (second compound 1 µM, first compound 3.16 µM): 15%
- viability, T/C (second compound 1 µM, first compound 10 µM): 0.21%

- IC50 (curve of compound): 15.1 nM and 20.5 nM and 15.8 nM
Structure (SMILES): Cn1ncnc1[C@H]1c2n[nH]c(=O)c3cc(F)cc(c23)N[C@@H]1c1ccc(F)cc1
- viability, T/C (compound 0.000316 µM): 95.8% and 103% and 101%
- viability, T/C (compound 0.001 µM): 93.7% and 105% and 94%
- viability, T/C (compound 0.00316 µM): 88.7% and 110% and 91.1%
- viability, T/C (compound 0.01 µM): 61.8% and 77.4% and 65.8%
- viability, T/C (compound 0.0316 µM): 28.1% and 33.8% and 26.1%
- viability, T/C (compound 0.1 µM): 12.9% and 16.1% and 13.9%

- IC50 (curve of compound): > 100 nM
Structure (SMILES): NC1CCC(NC2CC2c2ccccc2)CC1 (centres undefined)
- viability, T/C (compound 0.000316 µM): 101% and 116% and 107%
- viability, T/C (compound 0.001 µM): 97.7% and 101% and 104%
- viability, T/C (compound 0.00316 µM): 104% and 101% and 98.6%
- viability, T/C (compound 0.01 µM): 96.9% and 103% and 106%
- viability, T/C (compound 0.0316 µM): 96.4% and 105% and 96.6%
- viability, T/C (compound 0.1 µM): 89.5% and 98.1% and 92.1%

- IC50 [1]: > 1000 nM
- IC50 [2]: > 1000 nM
- IC50 [3]: > 1000 nM
- IC50 (curve of first compound, second compound 3.16 µM): > 1000 nM
- IC50 (curve of first compound, second compound 10 µM): > 1000 nM
Structure (SMILES): CCN1CCN(Cc2ccc(Nc3ncc(F)c(-c4cc(F)c5nc(C)n(C(C)C)c5c4)n3)nc2)CC1 + Cc1c(S(C)(=O)=O)c(-c2cc(F)cc(N3CCN(c4ccc(NS(=O)(=O)c5ccc(NC(CCN6CCC(C(=O)OCCCP(=O)(O)O)CC6)CSc6ccccc6)c(S(=O)(=O)C(F)(F)F)c5)cc4)CC3)c2)c(-c2ccc(Cl)cc2)n1C(C)C
- viability, T/C (second compound 0.1 µM, first compound 0.00316 µM): 101%
- viability, T/C (second compound 0.1 µM, first compound 0.01 µM): 94.9%
- viability, T/C [4]: 76.3%
- viability, T/C [5]: 64.1%
- viability, T/C [6]: 64.5%
- viability, T/C [7]: 67.8%
- viability, T/C (second compound 0.316 µM, first compound 0.00316 µM): 94.7%
- viability, T/C (second compound 0.316 µM, first compound 0.01 µM): 95.2%
- viability, T/C [8]: 78.2%
- viability, T/C [9]: 63.9%
- viability, T/C [10]: 49.7%
- viability, T/C [11]: 55.8%
- viability, T/C (second compound 1 µM, first compound 0.00316 µM): 95.3%
- viability, T/C (second compound 1 µM, first compound 0.01 µM): 93%
- viability, T/C [12]: 85.9%
- viability, T/C [13]: 65.7%
- viability, T/C [14]: 56.9%
- viability, T/C [15]: 57.2%
- viability, T/C (second compound 3.16 µM, first compound 0.00316 µM): 105%
- viability, T/C (second compound 3.16 µM, first compound 0.01 µM): 94.7%
- viability, T/C (second compound 3.16 µM, first compound 0.0316 µM): 72.1%
- viability, T/C (second compound 3.16 µM, first compound 0.1 µM): 55.8%
- viability, T/C (second compound 3.16 µM, first compound 0.316 µM): 62.3%
- viability, T/C (second compound 3.16 µM, first compound 1 µM): 49.5%
- viability, T/C (second compound 10 µM, first compound 0.00316 µM): 184%
- viability, T/C (second compound 10 µM, first compound 0.01 µM): 172%
- viability, T/C (second compound 10 µM, first compound 0.0316 µM): 145%
- viability, T/C (second compound 10 µM, first compound 0.1 µM): 105%
- viability, T/C (second compound 10 µM, first compound 0.316 µM): 96%
- viability, T/C (second compound 10 µM, first compound 1 µM): 79.4%
